We go through 3 compounds from patent US5407815A, “R-(-)-1-(5-hydroxyhexyl)-3-methyl-7-propylxanthine, a process for its preparation and pharmaceuticals containing this compound” (Hoechst Aktiengesellschaft, priority 1989, dated 1995).

In experiment [1] the test system is regional cerebral blood flow. The experiment in a line: Regional cerebral blood flow of the cat, heat conductivity technique (heat transport number λ). The class given is in vivo. To be noted: for duration of action as the half life t1/2 / Δλ% (mean percentage change of the heat transport number): anesthetized cat, 25 mg/kg intraduodenally; for Δλ% (mean percentage change of the heat transport number): suspension in 1% carboxymethylcellulose, n = 6 to 11; for conversion factor (f), based on Δλ%=1 for the racemate: intraduodenal, 25 mg/kg; for cerebral blood flow-stimulating action relative to racemate: racemate made equal to 1. As for the experimental part: The action of compound 1 according to the invention on the regional cerebral blood flow was investigated in comparison with the racemate 2 and the S-(+)-enantiomer 3 with the aid of the heat conductivity technique according to F. A. Gibbs (Proc. Soc. exp. Biol. (N.Y.) 31 (1933), pp. 141 et seq.), H. Hensel (Naturwissenschaften 43 (1956), pp. 477 et seq.) and E. Betz (Acta Neurol. Scand. Suppl. 14 (1965), pp. 29-37) in cats of both sexes under sodium pentobarbital anesthesia (35 mg/kg i.p.). In this method, with the aid of a heat conductivity probe applied to the surface of the brain in the region of the Gyrus marginalis frontalis, the transport of heat from a point of heating to an adjacent temperature-measuring site in the probe, which is directly proportional to the level of the cerebral blood flow, is determined. The mean percentage change in the heat transport number λ after administration of the preparation is used as a measure of the increase in blood flow.
The compounds were administered intraduodenally as a suspension in 1% strength aqueous carboxymethylcellulose. The dose was 25 mg of test substance per kg of body weight. 6 to 11 individual experiments were carried out for each test preparation and the mean percentage change in the heat transport number (Δλ%) was determined from the measurement data obtained.
The melting points m.p., the enantiomeric purities e.e. (enantiomeric excess), the number of measurements n, the mean percentage change (Δλ%) of the heat transport number as a measure of the potency, the conversion factors f, based on Δλ%=1 for the racemate, and the duration of action as the half life t1/2 (min) for R-(-)-1-(5-hydroxyhexyl)-3-methyl-7-propylxanthine (1), the corresponding enantiomer S-(+)-1-(5-hydroxyhexyl)-3-methyl-7-propylxanthine (3) and the racemate (2) of the two compounds is indicated in Table 1.

For the next experiment, the system named is cerebral blood flow. To be noted: known from DE-C-2,366,527; cited from earlier work.

`CCCn1cnc2c1c(=O)n(CCCC[C@@H](C)O)c(=O)n2C` [Compound 1, R-(-)-1-(5-hydroxyhexyl)-3-methyl-7-propylxanthine]: in experiment [1], the “duration of action as the half life t1/2” value is 1.67 h; the “Δλ% (mean percentage change of the heat transport number)” value is given as “+45%”; the “conversion factor (f), based on Δλ%=1 for the racemate” value is reported as 1.88; the “cerebral blood flow-stimulating action relative to racemate” value is listed as “about 2”. In experiment [1] (ratio R-(-) to S-(+)), the “cerebral blood flow-stimulating action of R-(-)-enantiomer relative to S-(+)-antipode” value was “about three” and the “duration of action of R-(-)-compound relative to S-(+)-compound” value is given as “about three”.

Consider `CCCn1cnc2c1c(=O)n(CCCCC(C)O)c(=O)n2C` (racemic) [Compound 2, 1-(5-hydroxyhexyl)-3-methyl-7-propylxanthine], for which, in experiment [1], the “duration of action as the half life t1/2” value is 1.67 h; the “Δλ% (mean percentage change of the heat transport number)” value was “+24%”; the “conversion factor (f), based on Δλ%=1 for the racemate” value is 1.00; the “cerebral blood flow-stimulating action relative to racemate” value was 1. Moreover, the “cerebral blood flow-stimulating action (qualitative)” value in the experiment with cerebral blood flow is reported as “cerebral blood flow-stimulating action”.

`CCCn1cnc2c1c(=O)n(CCCC[C@H](C)O)c(=O)n2C` [Compound 3, S-(+)-1-(5-hydroxyhexyl)-3-methyl-7-propylxanthine]: in experiment [1], the “duration of action as the half life t1/2” value was determined as 0.6 h; the “Δλ% (mean percentage change of the heat transport number)” value is given as “+16%”; the “conversion factor (f), based on Δλ%=1 for the racemate” value turned out to be 0.67; the “cerebral blood flow-stimulating action relative to racemate” value is reported as “about 0.65”.
